Reference: US12630600B2 (MEDIMMUNE LIMITED, priority 2022, dated 2026)
Starred links: 1 amine or outer side, 2 acyl side, 3 side chain; linkers in the order of their positions; H or OH if unused. Non-standard residues stand in square brackets, D forms with d. Residues, ends and D or L forms follow the SMILES beside them. Groups on a side chain read outwards from the residue. *: point of attachment. C20 diacid = O=C(O)CCCCCCCCCCCCCCCCCCC(=O)*; C18 diacid = O=C(O)CCCCCCCCCCCCCCCCC(=O)*; γGlu = O=C(O)[C@H](CCC(=O)[*:2])N[*:1]; αMeF = C[C@](N)(Cc1ccccc1)C(=O)O; PEG2 = NCCOCCOCCC(=O)O; AEEA = NCCOCCOCC(=O)O; Aib = CC(C)(N)C(=O)O

target: T1, human GLP-1 receptor (hGLP-1R) (Homo sapiens, UniProt P43220); assay: cAMP production (HTRF) in CHO cells expressing human GLP-1 receptor; format: cell-based; details: Table 8; % GLP-1R activity relative to GLP-1 / % GlucR activity relative to glucagon
T1 construct: expressed in transfected cells; host or cells: CHO
Procedure: Cells were re-suspended in assay buffer at a batch-dependent optimized concentration (typically hGLP-1R cells at 1×10^5 cells/mL, hGCGR cells at 2×10^5 cells/mL).
Cells were added to the assay plate using a multidrop dispenser and incubated at room temperature for 30 minutes before measuring the cAMP level using a cAMP dynamic 2 homogeneous time resolved Fluorescence (HTRF) kit (Cisbio Bioassays #62AM4PEJ) following the two-step protocol as per manufacturer's recommendations. In brief, anti-cAMP cryptate (donor fluorophore) and cAMP-d2 (acceptor fluorophore) were made up separately by diluting each 1 in 20 in conjugate and lysis buffer provided in the kit. Anti-cAMP cryptate was added to all wells of the assay plate, followed by cAMP-d2 added to all wells except non-specific binding (NSB) wells (to which conjugate and lysis buffer was added).
Data was transformed to % Delta F as described in the manufacturer's guidelines and analyzed by 4-parameter logistic fit to determine EC50 values.

T1 sequence (P43220 24-463): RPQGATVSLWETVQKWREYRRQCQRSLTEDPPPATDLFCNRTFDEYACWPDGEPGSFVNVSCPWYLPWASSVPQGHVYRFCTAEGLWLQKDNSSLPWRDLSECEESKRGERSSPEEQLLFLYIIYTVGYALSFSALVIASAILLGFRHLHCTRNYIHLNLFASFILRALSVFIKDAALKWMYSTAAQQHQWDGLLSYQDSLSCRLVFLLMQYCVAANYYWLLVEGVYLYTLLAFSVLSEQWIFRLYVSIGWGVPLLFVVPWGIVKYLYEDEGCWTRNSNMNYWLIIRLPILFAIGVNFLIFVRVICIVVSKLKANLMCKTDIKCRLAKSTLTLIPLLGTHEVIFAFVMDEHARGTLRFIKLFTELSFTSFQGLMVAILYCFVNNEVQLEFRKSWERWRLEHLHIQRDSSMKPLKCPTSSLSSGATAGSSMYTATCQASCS

SMILES | % Relative Potency Ratio
CC[C@H](C)[C@H](NC(=O)[C@H](Cc1c[nH]c2ccccc12)NC(=O)[C@H](CCCCNC(=O)CCOCCOCCNC(=O)CCOCCOCCNC(=O)CC[C@H](NC(=O)CC[C@H](NC(=O)CCCCCCCCCCCCCCCCCCC(=O)O)C(=O)O)C(=O)O)NC(=O)[C@@H](NC(=O)[C@H](Cc1ccccc1)NC(=O)[C@H](CC(=O)O)NC(=O)[C@H](CCC(N)=O)NC(=O)[C@H](C)NC(=O)[C@H](C)NC(=O)[C@H](CCC(N)=O)NC(=O)[C@H](CO)NC(=O)[C@H](CC(=O)O)NC(=O)[C@H](CC(C)C)NC(=O)[C@](C)(Cc1ccccc1)NC(=O)[C@H](CCCCN)NC(=O)[C@H](CO)NC(=O)[C@@H](NC(=O)[C@H](CC(=O)O)NC(=O)[C@H](CO)NC(=O)[C@@H](NC(=O)[C@](C)(Cc1ccccc1)NC(=O)[C@H](CO)NC(=O)CNC(=O)[C@H](Cc1c[nH]cn1)NC(=O)C(C)(C)NC(=O)[C@@H](N)Cc1c[nH]cn1)[C@@H](C)O)C(C)C)C(C)C)C(=O)N[C@@H](C)C(=O)N[C@@H](CC(N)=O)C(=O)N[C@H](C(N)=O)[C@@H](C)O [Peptide 355] (H-H[Aib]HGS[αMeF]TSDVSK[αMeF]LDSQAAQDFVK([PEG2-PEG2-γGlu-γGlu-C20 diacid])WIANT-NH2; N-terminus assumed) | 2.2
CC[C@H](C)[C@H](NC(=O)C(C)(C)NC(=O)[C@H](CCCCNC(=O)COCCOCCNC(=O)COCCOCCNC(=O)CC[C@H](NC(=O)CCCCCCCCCCCCCCCCC(=O)O)C(=O)O)NC(=O)[C@@H](NC(=O)[C@](C)(Cc1ccccc1)NC(=O)[C@H](CC(=O)O)NC(=O)[C@H](CCC(N)=O)NC(=O)[C@H](C)NC(=O)[C@H](C)NC(=O)[C@H](CCC(N)=O)NC(=O)[C@H](CO)NC(=O)[C@H](CC(=O)O)NC(=O)[C@H](CC(C)C)NC(=O)[C@](C)(Cc1ccccc1)NC(=O)[C@H](CCCCN)NC(=O)[C@H](CO)NC(=O)[C@@H](NC(=O)[C@H](CC(=O)O)NC(=O)[C@H](CO)NC(=O)[C@@H](NC(=O)[C@](C)(Cc1ccccc1)NC(=O)[C@H](CO)NC(=O)CNC(=O)[C@H](Cc1c[nH]cn1)NC(=O)C(C)(C)NC(=O)[C@@H](N)Cc1c[nH]cn1)[C@@H](C)O)C(C)C)C(C)C)C(=O)N[C@@H](C)C(=O)N[C@@H](CC(N)=O)C(=O)N[C@H](C(N)=O)[C@@H](C)O [Peptide 383] (H-H[Aib]HGS[αMeF]TSDVSK[αMeF]LDSQAAQD[αMeF]VK([AEEA-AEEA-γGlu-C18 diacid])[Aib]IANT-NH2; N-terminus assumed) | 2.3
CC[C@H](C)[C@H](NC(=O)[C@H](Cc1c[nH]c2ccccc12)NC(=O)[C@H](CCCCNC(=O)COCCOCCNC(=O)COCCOCCNC(=O)CC[C@H](NC(=O)CCCCCCCCCCCCCCCCC(=O)O)C(=O)O)NC(=O)[C@@H](NC(=O)[C@H](Cc1ccccc1)NC(=O)[C@H](CC(=O)O)NC(=O)[C@H](CCC(N)=O)NC(=O)[C@H](C)NC(=O)C(C)(C)NC(=O)[C@H](CCCNC(=N)N)NC(=O)[C@H](CO)NC(=O)[C@H](CC(=O)O)NC(=O)[C@H](CC(C)C)NC(=O)[C@](C)(Cc1ccccc1)NC(=O)[C@H](CCCCN)NC(=O)[C@H](CO)NC(=O)[C@@H](NC(=O)[C@H](CC(=O)O)NC(=O)[C@H](CO)NC(=O)[C@@H](NC(=O)[C@](C)(Cc1ccccc1)NC(=O)[C@H](CO)NC(=O)CNC(=O)[C@H](Cc1c[nH]cn1)NC(=O)C(C)(C)NC(=O)[C@@H](N)Cc1c[nH]cn1)[C@@H](C)O)C(C)C)C(C)C)C(=O)N[C@@H](C)C(=O)N[C@@H](CC(N)=O)C(=O)N[C@H](C(N)=O)[C@@H](C)O [Peptide 365, H(Aib)HGS(αMePhe)TSDVSK(αMePhe)LDSR(Aib)AQDFVK(O2Oc-O2Oc-γE-C18diacid)24WIANT-amide] (H-H[Aib]HGS[αMeF]TSDVSK[αMeF]LDSR[Aib]AQDFVK([AEEA-AEEA-γGlu-C18 diacid])WIANT-NH2; N-terminus assumed) | 0.3

Results, then the molecule that gave them:

% Relative Potency Ratio | SMILES
2.4 | CC[C@H](C)[C@H](NC(=O)[C@H](CO)NC(=O)[C@H](CCCCNC(=O)COCCOCCNC(=O)COCCOCCNC(=O)CC[C@H](NC(=O)CCCCCCCCCCCCCCCCC(=O)O)C(=O)O)NC(=O)[C@@H](NC(=O)[C@](C)(Cc1ccccc1)NC(=O)[C@H](CC(=O)O)NC(=O)[C@H](CCC(N)=O)NC(=O)[C@H](C)NC(=O)[C@H](C)NC(=O)[C@H](CCCNC(=N)N)NC(=O)[C@H](CO)NC(=O)[C@H](CC(=O)O)NC(=O)[C@H](CC(C)C)NC(=O)[C@](C)(Cc1ccccc1)NC(=O)[C@H](CCCCN)NC(=O)[C@H](CO)NC(=O)[C@@H](NC(=O)[C@H](CC(=O)O)NC(=O)[C@H](CO)NC(=O)[C@@H](NC(=O)[C@](C)(Cc1ccccc1)NC(=O)[C@H](CO)NC(=O)CNC(=O)[C@H](Cc1c[nH]cn1)NC(=O)C(C)(C)NC(=O)[C@@H](N)Cc1c[nH]cn1)[C@@H](C)O)C(C)C)C(C)C)C(=O)N[C@@H](C)C(=O)N[C@@H](CC(N)=O)C(=O)N[C@H](C(N)=O)[C@@H](C)O [Peptide 379] (H-H[Aib]HGS[αMeF]TSDVSK[αMeF]LDSRAAQD[αMeF]VK([AEEA-AEEA-γGlu-C18 diacid])SIANT-NH2)
3.1 | CC[C@H](C)[C@H](NC(=O)[C@H](Cc1c[nH]c2ccccc12)NC(=O)[C@H](CCCCNC(=O)COCCOCCNC(=O)COCCOCCNC(=O)CC[C@H](NC(=O)CCCCCCCCCCCCCCCCCCC(=O)O)C(=O)O)NC(=O)[C@@H](NC(=O)[C@H](Cc1ccccc1)NC(=O)[C@H](CC(=O)O)NC(=O)[C@H](CCC(N)=O)NC(=O)[C@H](C)NC(=O)C(C)(C)NC(=O)[C@H](CCCNC(=N)N)NC(=O)[C@H](CO)NC(=O)[C@H](CC(=O)O)NC(=O)[C@H](CC(C)C)NC(=O)[C@](C)(Cc1ccccc1)NC(=O)[C@H](CCCCN)NC(=O)[C@H](CO)NC(=O)[C@@H](NC(=O)[C@H](CC(=O)O)NC(=O)[C@H](CO)NC(=O)[C@@H](NC(=O)[C@](C)(Cc1ccccc1)NC(=O)[C@H](CO)NC(=O)CNC(=O)[C@H](Cc1c[nH]cn1)NC(=O)C(C)(C)NC(=O)[C@@H](N)Cc1c[nH]cn1)[C@@H](C)O)C(C)C)C(C)C)C(=O)N[C@@H](C)C(=O)N[C@@H](CC(N)=O)C(=O)N[C@H](C(N)=O)[C@@H](C)O [Peptide 368, H(Aib)HGS(αMePhe)TSDVSK(αMePhe)LDSR(Aib)AQDFVK(O2OC-O2OC-γE-C20diacid)24WIANT-amide] (H-H[Aib]HGS[αMeF]TSDVSK[αMeF]LDSR[Aib]AQDFVK([AEEA-AEEA-γGlu-C20 diacid])WIANT-NH2; N-terminus assumed)
2.6 | CC[C@H](C)[C@H](NC(=O)[C@H](Cc1c[nH]c2ccccc12)NC(=O)[C@H](CCCCNC(=O)COCCOCCNC(=O)COCCOCCNC(=O)CC[C@H](NC(=O)CC[C@H](NC(=O)CCCCCCCCCCCCCCCCC(=O)O)C(=O)O)C(=O)O)NC(=O)[C@@H](NC(=O)[C@H](Cc1ccccc1)NC(=O)[C@H](CC(=O)O)NC(=O)[C@H](CCC(N)=O)NC(=O)[C@H](C)NC(=O)[C@H](C)NC(=O)[C@H](CCCNC(=N)N)NC(=O)[C@H](CO)NC(=O)[C@H](CC(=O)O)NC(=O)[C@H](CC(C)C)NC(=O)[C@](C)(Cc1ccccc1)NC(=O)[C@H](CCCCN)NC(=O)[C@H](CO)NC(=O)[C@@H](NC(=O)[C@H](CC(=O)O)NC(=O)[C@H](CO)NC(=O)[C@@H](NC(=O)[C@](C)(Cc1ccccc1)NC(=O)[C@H](CO)NC(=O)CNC(=O)[C@H](Cc1c[nH]cn1)NC(=O)C(C)(C)NC(=O)[C@@H](N)Cc1c[nH]cn1)[C@@H](C)O)C(C)C)C(C)C)C(=O)N[C@@H](C)C(=O)N[C@@H](CC(N)=O)C(=O)N[C@H](C(=O)NCC(=O)NCC(N)=O)[C@@H](C)O [Peptide 364] (H-H[Aib]HGS[αMeF]TSDVSK[αMeF]LDSRAAQDFVK([AEEA-AEEA-γGlu-γGlu-C18 diacid])WIANTGG-NH2; N-terminus assumed)
